“Also recorded” adds a separate entry of the source.
What was measured:
FFX rats = assay: Hippocampal LTP in vivo in FFX rats; set-up: species or system rat; details: 0.3 mg/kg
Experimental: AZD0328 reversed a deficit in hippocampal long-term potentiation (LTP) in FFX Sprague Dawley rats (Table 2). […] 0.3 mg/kg of AZD0328 was ineffective in this test.

dogs = assay: Maximum tolerated dose and 7 days oral toxicity; format: in vivo; details: dog
Experimental: Single doses of 4.5 to 17 mg/kg were administrated to test AZD0328 to 2 male and 2 female dogs. […] Signs of nausea and at the higher doses vomiting was seen. In the 7 days repeated dose study 2 male and 2 female dogs were given 35 mg/kg per day. However, vomiting was the major clinical sign recorded during the study.

rhesus monkeys = assay: Spatial delayed response (SDR) task; format: in vivo, rhesus monkey (macaca mulatta)
Excerpt: AZD0328 at low doses improved performance in the spatial delayed response test in monkeys. Rhesus monkeys were trained in a spatial delayed response task. In this task, food-motivated monkeys observed one of several spatially-displaced wells being baited with a food reward. After a brief delay during which a shutter is drawn and the wells are covered, the monkey must indicate the position of the baited well to receive the food reward. The performance of groups of monkeys was titrated into a narrow range by changing the number of wells or the duration of the delay. Monkeys were tested extensively to establish baseline performance before being administered drug or vehicle. Intramuscular administration of 0.00048 or 0.0016 mg/kg AZD0328 evoked a sustained increase in the percentage of correct responses monkeys made when compared with responses of vehicle-treated monkeys.
Rhesus monkey were trained in a spatial delayed response task. Middle doses of AZD0328 (0.0016 and 0.00048 mg/kg im) evoked a sustained improvement in rhesus monkey performance, while a higher dose (0.48 mg/kg) and a lower dose (0.000016 mg/kg) transiently impaired performance of the task (Table 2).

Mouse lymphoma test = assay: Mouse lymphoma test; format: cell-based
Excerpt: The genotoxic potential of AZD0328 has been evaluated in the Ames test and in the Mouse lymphoma test. AZD0328 was not mutagenic in either of these tests.

ferrets = assay: Emetic potential; format: in vivo; details: ferret
Experimental: The emetic potential of AZD0328 was investigated in ferrets (n=6-8/dose) following a single oral dose of vehicle or AZD0328 (Table 3). Videotape recordings were used for observation of the animals up to 4 h after dose for quantitation and timing of emetic behaviours, characterised as retches (abdominal contractions), vomits and wet-dog shakes.

[1] = system: isolated perfused female rabbit hearts; assay: Isolated perfused rabbit heart (Hondeghem model)
Excerpt: Proarrhythmic properties of AZD0328 were investigated in 6 isolated perfused female rabbit hearts according to the Hondeghem model (Table 3). Effects of AZD0328 on action potential duration at 60% of repolarisation (APD60), and Triangulation, Reverse-use dependence and Instability (T, R, I) of the action potential, were studied. Also, a “flag” was raised when T, R or I reached a critical threshold level, below which is considered safe, and the total number of flags was presented as increase in percentage flags. The % flags parameter is considered to be the most sensitive measure of proarrhythmia in this in vitro model, with a threshold for cause of concern at 2.5%. The % flags increased concentration-dependently above threshold at 9 and 30 μM. Although TRIad elements were present, there were no overt signs of proarrhythmia such as early-afterdepolarisations (EADs), Torsade de Pointes, or ventricular fibrillation. In this study the no adverse effect level (NOAEL) of AZD0328 for proarrhythmic signals was 3 μm.

human hepatocytes = assay: Hepatocyte incubations (metabolites); format: in vitro ADME; details: four separate batches of human hepatocytes
Experimental: Pyridinyl methylation of AZD0328 was a unique polar metabolite (M2) observed in dog hepatocytes. Other minor hydroxylation/oxidation and glucuronide conjugation products were detected in monkey, dog, rat, and guinea pig hepatocyte incubations and mini-pig hepatic microsome incubations. […] Analysis of plasma and urine samples from either orally or iv dosed rats confirmed N-oxide product of AZD0328 was a main product in the excretion and circulation. The percentage of AZD0328 N-oxide in the plasma from male rats was much higher than from females.

5-HT3A/B receptors = target: T1, 5-HT3A/B receptors (Homo sapiens, UniProt O95264+P46098); assay: Functional potency at recombinant human receptors in vitro; format: cell-based
T1 construct: expressed in transfected cells
T1 sequence (P46098 24-478): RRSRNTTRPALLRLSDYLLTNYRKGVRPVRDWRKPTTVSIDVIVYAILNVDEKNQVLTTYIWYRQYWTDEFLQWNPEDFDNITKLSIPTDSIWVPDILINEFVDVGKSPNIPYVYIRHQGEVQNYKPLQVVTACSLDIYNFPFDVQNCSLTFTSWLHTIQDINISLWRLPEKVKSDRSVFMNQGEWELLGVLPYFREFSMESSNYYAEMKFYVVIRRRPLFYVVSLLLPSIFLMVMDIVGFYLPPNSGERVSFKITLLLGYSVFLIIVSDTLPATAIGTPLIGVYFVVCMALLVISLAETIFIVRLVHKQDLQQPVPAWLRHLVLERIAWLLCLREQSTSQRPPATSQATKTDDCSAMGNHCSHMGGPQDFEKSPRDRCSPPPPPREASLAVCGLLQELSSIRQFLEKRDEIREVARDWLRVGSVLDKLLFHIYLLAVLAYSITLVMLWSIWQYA
T1 sequence (O95264 22-441): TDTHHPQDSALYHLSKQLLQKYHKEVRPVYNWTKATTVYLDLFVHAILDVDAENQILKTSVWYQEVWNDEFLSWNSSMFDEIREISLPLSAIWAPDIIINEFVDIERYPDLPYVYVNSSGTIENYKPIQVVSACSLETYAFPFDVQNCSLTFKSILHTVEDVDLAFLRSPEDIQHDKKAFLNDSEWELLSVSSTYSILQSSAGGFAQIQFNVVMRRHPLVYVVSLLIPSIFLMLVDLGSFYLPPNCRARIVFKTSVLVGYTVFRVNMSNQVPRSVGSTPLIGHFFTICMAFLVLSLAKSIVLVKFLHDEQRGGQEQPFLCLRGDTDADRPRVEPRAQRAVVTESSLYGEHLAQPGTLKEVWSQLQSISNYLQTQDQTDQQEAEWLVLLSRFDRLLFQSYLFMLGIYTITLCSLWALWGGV

rats = assay: 1 month repeated-dose oral toxicity; format: in vivo; details: rat, one month, high dose 65 mg/kg/day (300 μmol/kg/day)
Experimental: The objective of this investigation was to study the toxicity of AZD0328 given orally to rats for 1 month. Four groups of rats, each consisting of 10 males and 10 females, were given 0, 2.2, 15 and 65 mg/kg/day ([…]) of AZD0328.

## c1cnc2c(c1)C[C@@]1(CN3CCC1CC3)O2 [AZD0328, (R)-Spiro[1-azabicyclo[2.2.2]octane-3,2′(3′H)-furo[2,3-b]pyridine]]
FFX rats
  Hippocampal LTP: ineffective
dogs
  Dose with slight QT prolongation (ECG): ≥ 8.6 mg/kg
Rhesus monkeys; four of nine monkeys improved at middle doses
  Duration of improved performance after a single dose: more than one month
Rhesus monkeys; rhesus monkeys
  Lower doses with no effect or transient impairment: ≥ 0.00016 mg/kg
Rhesus monkeys; rhesus monkeys, 0.016 mg/kg
  Percent correct responses: non-significant increase
Mouse lymphoma test
  Mutagenicity / genotoxicity: not genotoxic; also recorded: not mutagenic
ferrets; oral gavage 5.6, 16.9 or 56.2 mg/kg
  Emetic responses: retching, vomiting and wet-dog shakes at all doses
ferrets; single oral dose
  Dose with statistically significant retches vs vehicle: 5.6 mg/kg
[1]
  NOAEL in the proarrhythmic isolated heart assay: 0.9 µM
[1]; isolated perfused rabbit heart
  NOAEL for proarrhythmic signals: 3 μm
Human hepatocytes
  Metabolites in hepatocyte incubations: no metabolites were detected
5-HT3A/B receptors
  Functional potency α7 versus 5-HT3A/B: equipotent
rats
  Target organ pathology (kidney): vacuolation of the tubular cells

Reference: US20100168146A1, “Composition Comprising (R)-Spiro[L-Azabicyclo[2.2.2]Octane-3,2'(3'H)-Furo[2,3-B]Pyridine (AZD0328) and its Use in the Treatment of Alzheimer's Disease, ADHD or Cognitive Dysfunction” (priority 2008, published 2010)
